Measured values as given in paper PMC10214526, “Semisynthetic LC3 Probes for Autophagy Pathways Reveal a Noncanonical LC3 Interacting Region Motif Crucial for the Enzymatic Activity of Human ATG3” (ACS Central Science, 2023).
Where no end group is shown, it is not given here.

Experiments:
[1] = tested on: ATG3; experiment: Reaction (cross-linking) of Ubl activity-based probes with recombinant ATG3 and variants; type: biochemical, human; conditions: probe 15 μM; ATG3 wt, C264A and ΔLIR 5 μM; SDS-PAGE (Figure S9)
[2] = tested on: ATG3; experiment: as above; type: biochemical, human; conditions: for Reaction with ATG3 C0: ATG3 C0 (no cysteines) 15 μM; for Reaction with ATG3 C1: ATG3 C1 (only active-site C264) 15 μM; for Reaction with ATG3 ΔLIR: ATG3 C1 ΔLIR (Δ95–111) 15 μM
Procedure: Figure 1 Modification of ATG3 with GABARAP ABPs depends on LIR^ATG3. a. Characterization of GABARAP activity-based probes, 1 and 2, obtained by hydrazide-acylation. Deconvoluted mass-spectrum (ESI) of GABARAP(ΔG116)–NHNH α-chloroacetyl 1. Expected mass 13707 Da. Deconvoluted mass-spectrum (ESI) of GABARAP(ΔG116)–NHNH methyl-fumarate 2. Expected mass 13743 Da. b. […] The reaction was allowed to proceed for 1 h and was analyzed by SDS-PAGE and Coomassie Blue staining. c. ColabFold-predicted structure of the protein-complex of ATG3 and GABARAP. Side-chain atoms are shown for the predicted LIR motif in ATG3 (90–112). d. Reaction of 2 (15 μM) with ATG3 variants C1, C0, and ΔLIR (15 μM). ATG3 C1 contains only active-site cysteine C264. ATG3 C0 contains no cysteines. ATG3 ΔLIR lacks amino acids 95–111. Reaction was allowed to proceed for 1 h and was analyzed by SDS-PAGE and Coomassie Blue staining. Full-gel images for b and d are available in the Supplementary Information.
We were intrigued by the cross-linking efficiency of 2 with ATG3 and sought to investigate the origin of this efficiency by generating a C1 variant of ATG3 that only contains the catalytic cysteine 264 and a corresponding C0 variant containing no cysteines. […] In general, the affinity of E2s for their cognate Ubls are quite low, as the thioester transfer from the E1 to the E2 enzyme is facilitated by additional interactions from the UFD domain of the E1 enzyme.[23] […]
Upon completion the solution was dialyzed against 25 mM
HEPES, 200 mM NaCl pH 7.2 at 4 °C. Cleaved intein was removed using gravity Ni-NTA purification.
The flow-through was collected and combined with resin washes. The combined fractions were dialyzed and further purified using ion exchange.
3.3. Generation of GABARAP and LC3A hydrazides from SUMO-GABARAP/LC3A-Mxe GyrA-
SUMO-GABARAP/LC3A-Mxe GyrA-His6 fusion after Ni-NTA purification was dialyzed against intein cleavage buffer (25 mM HEPES, 500 mM NaCl, 1 mM EDTA pH 7.2 at 4 °C). After dialysis hydrazine monohydrate (75 mM) and MESNa (10 mM) was added and the pH adjusted to 7.8. The solution was allowed to stand at room temperature and monitored using LC-MS analysis. Upon completion the solution was dialyzed against 25 mM HEPES, 500 mM NaCl pH 7.2 at 4 °C. SENP1 (1 wt%) was added to cleave the SUMO-tag. The cleaved intein was removed using gravity Ni-NTA purification. […]
dialyzed and further purified using cation exchange using a buffer 25 mM Tris pH 8.0 and a gradient of […] in the same buffer over 25 column volumes. The product fractions were pooled, concentrated, and stored at –80 °C until further use.
3.4. Synthesis of symmetrical anhydrides
The carboxylic acid was dissolved in CH2Cl2 (300 mM) and dicyclohexylcarbodiimide (0.5 eqiv) was added in one portion. The reaction was stirred under N2 for 18 h. The suspension was filtered and concentrated to ~10% of the initial volume. The solution was placed at 4 °C for 1 h and filtered again.
The filtrate was concentrated to obtain the symmetrical anhydride which was used without further purification. Anhydrides can be stored at –20 °C for weeks.
3.5. Reaction of modified Ubl probes with E2s
Ubl probes (15 μM) were mixed with E2s (15 μM) in PBS. The mixture was incubated at 37 °C in a water bath for 0.5-3 h. The reaction was quenched by addition of 2x Laemmli buffer and boiled at 95 °C for 5 min. Samples were resolved by SDS-PAGE (8-16%, Bio-Rad) and visualized by […]
Coomassie staining. […]

[3] = target: T1, GABARAP (Homo sapiens, UniProt O95166); experiment: Fluorescence polarization binding of fluorescein-modified LIR^ATG3 peptides to GABARAP; conditions: response letter; truncated LIR peptide (103–111)
T1 construct: His6-SUMO (pOPINS) (N, cleaved yes); made in house; host or cells: E. coli Rosetta-CodonPlus (DE3)-RIL
Text: (§1) Figure 2 Characterization of LIR^ATG3. a. Reaction scheme outlining competition assay used for b, c, and d. b. Coomassie Blue-stained SDS-PAGE analysis for reaction of 2 with ATG3 C1 in the presence of varying concentrations of linear LIR^ATG3 peptide 5 as outlined in a. c. Coomassie Blue-stained SDS-PAGE analysis for reaction of 2 with ATG3 C1 in the presence of varying concentrations of cyclized LIR^ATG3 peptide 6 as outlined in a. d. Quantification of competition assays shown in b and c. The amount of GABARAP–ATG3 C1 complex was quantified by gel-densitometry and normalized to the reaction without peptide for each gel. […] Data are presented as average values ± s.d. e. Fluorescence polarization binding-data of fluorescein-modified LIR^ATG3 peptide binding to GABARAP. Either linear, cyclized, or truncated (103–111) LIR^ATG3 peptide was used. […] Fluorescence polarization data of fluorescein-modified LIR^ATG3 peptide binding to LC3A. […]
(§2) 3.13.Fluorescence polarization measurement
(§3) Fluorescent peptides were dissolved in DMSO and PBS. The concentration was determined by UV - absorption and extinction coefficient at 280 nm. […] Protein concentration was determined using UV-absorption and extinction coefficient at 280 nm. […]
(§4) 0.047 μM. […] Fluorescence polarization and intensity was measured on a Victor Nivo Plate Reader (Perkin Elmer). […]

[4] = target: T2, LC3A (Homo sapiens, UniProt Q9H492); experiment: Fluorescence polarization binding of fluorescein-modified LIR^ATG3 peptides to LC3A
T2 construct: His6-SUMO (pOPINS) (N, cleaved yes); made in house; host or cells: E. coli Rosetta-CodonPlus (DE3)-RIL
Text: as §1, §2, §3, §4

T1 sequence (O95166 whole entry, the tested form may be a part): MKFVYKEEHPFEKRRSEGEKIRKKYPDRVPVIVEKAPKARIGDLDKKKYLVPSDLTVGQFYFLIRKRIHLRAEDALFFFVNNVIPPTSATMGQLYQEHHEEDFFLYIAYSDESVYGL

GABARAP(ΔG116)–NHNH α-chloroacetyl [compound 1]
LIR dependence of ATG3 wild-type modification [1]: dependent on LIRATG3 | LIR dependence of cross-linking with ATG3 ([2]; ATG3 with or without LIR): strictly dependent on LIR^ATG3 | Cross-linking with ATG3 C1 vs C0 ([2]; probe 1 15 μM, ATG3 C1 or C0 15 μM, 1 h (Figure S2)): Cross-linking was only observed for ATG3 C1

LC3A(ΔG120)–NHNH methyl fumarate [compound 4]
Reaction with ATG3 C0 ([2]; probe 15 μM, SDS-PAGE): no reaction | Reaction with ATG3 C1 ([2]; probe 15 μM, SDS-PAGE): efficient reaction | Reaction with ATG3 ΔLIR ([2]; probe 15 μM, SDS-PAGE): no reaction

Ub(ΔGG)–NHNH methyl fumarate [Ub(ΔGG) methyl fumarate probe, reference compound]
Reaction with ATG3 wt ([2]; probe 15 μM, ATG3 15 μM, 1 h, SDS-PAGE, Coomassie Blue): did not react

LC3A(ΔG120)–NHNH α-chloroacetyl [compound 3]
Reaction with ATG3 C0 ([2]; probe 15 μM, SDS-PAGE): no reaction | Reaction with ATG3 C1 ([2]; probe 15 μM, SDS-PAGE): efficient reaction | Reaction with ATG3 ΔLIR ([2]; probe 15 μM, SDS-PAGE): no reaction

truncated LIR^ATG3: fluorescein-modified truncated (103–111) LIR^ATG3 peptide, amino acids G103-Y111 including the core LIR motif (GDGGWVDTY; also: fluorescein, position not given here)
fold weaker affinity of truncated peptide, GABARAP [3]: > 8 fold | fold weaker binding of truncated peptide than linear peptide ([4]; GABARAP or LC3A not stated, truncated (103–111) vs linear): 6 fold | fold weaker affinity of truncated peptide, LC3A ([4]; response letter, truncated LIR peptide lacking amino acids 104-95): > 8 fold
